Test results published in ChEMBL document CHEMBL6087472, “Development and Discovery of a Selective Degrader of Casein Kinases 1 δ/ε” (J Med Chem, 2025).
Calls of active or inactive are those of the source. No cut-off for these calls is given here.

Columns and labels:
[1] = target: T1, von Hippel-Lindau disease tumor suppressor/Casein kinase I isoform delta (Homo sapiens, UniProt P48730+P40337); assay: PROTAC activity at VHL/full length N-terminal Nano-luc fused CK1 delta (unknown origin) transfected in HEK293T cells incubated for 2 hrs followed by substrate addition by NanoBRET target engagement assay; assay type: cell-based
Target sequence in this assay (P40337 whole entry, looked up, the tested form may be a part, canonical isoform): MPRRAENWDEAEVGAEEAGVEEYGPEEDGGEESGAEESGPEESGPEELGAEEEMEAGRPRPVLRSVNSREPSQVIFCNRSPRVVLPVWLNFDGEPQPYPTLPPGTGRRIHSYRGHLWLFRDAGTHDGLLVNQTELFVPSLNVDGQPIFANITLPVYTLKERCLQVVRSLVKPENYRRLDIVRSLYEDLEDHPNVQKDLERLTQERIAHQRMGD
Target sequence in this assay (P48730 whole entry, looked up, the tested form may be a part, canonical isoform): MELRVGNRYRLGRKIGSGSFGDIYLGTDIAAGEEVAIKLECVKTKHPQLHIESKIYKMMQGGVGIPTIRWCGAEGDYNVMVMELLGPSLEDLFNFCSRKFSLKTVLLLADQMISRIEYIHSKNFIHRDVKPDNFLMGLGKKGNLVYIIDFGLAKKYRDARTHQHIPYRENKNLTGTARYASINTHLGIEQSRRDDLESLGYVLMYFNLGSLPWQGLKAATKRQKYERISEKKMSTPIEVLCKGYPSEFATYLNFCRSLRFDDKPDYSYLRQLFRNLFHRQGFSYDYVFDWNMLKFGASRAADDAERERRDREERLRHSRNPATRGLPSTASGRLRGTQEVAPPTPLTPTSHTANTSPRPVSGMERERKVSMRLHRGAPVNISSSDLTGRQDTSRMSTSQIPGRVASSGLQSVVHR

[2] = target: T1, von Hippel-Lindau disease tumor suppressor/Casein kinase I isoform delta; assay: PROTAC activity at VHL/Hibit-fused CK1 delta in human MV4-11 cells assessed as degradation of CK1-delta incubated for 6 hrs by Nano-Glo HiBiT assay relative to control; assay type: cell-based
Target sequence in this assay (P40337 whole entry, looked up, the tested form may be a part, canonical isoform): as the sequence (P40337 whole entry, looked up, the tested form may be a part, canonical isoform) above
Target sequence in this assay (P48730 whole entry, looked up, the tested form may be a part, canonical isoform): as the sequence (P48730 whole entry, looked up, the tested form may be a part, canonical isoform) above

[3] = target: T2, von Hippel-Lindau disease tumor suppressor/Casein kinase I isoform alpha (Homo sapiens) (UniProt P48729+P40337); assay: PROTAC activity at VHL/Hibit-fused CK1 alpha in human MV4-11 cells assessed as degradation of CK1-alpha incubated for 6 hrs by Nano-Glo HiBiT assay relative to control; assay type: cell-based
T2 sequence (P40337 whole entry, looked up, the tested form may be a part, canonical isoform): as the sequence (P40337 whole entry, looked up, the tested form may be a part, canonical isoform) above
T2 sequence (P48729 whole entry, looked up, the tested form may be a part, canonical isoform): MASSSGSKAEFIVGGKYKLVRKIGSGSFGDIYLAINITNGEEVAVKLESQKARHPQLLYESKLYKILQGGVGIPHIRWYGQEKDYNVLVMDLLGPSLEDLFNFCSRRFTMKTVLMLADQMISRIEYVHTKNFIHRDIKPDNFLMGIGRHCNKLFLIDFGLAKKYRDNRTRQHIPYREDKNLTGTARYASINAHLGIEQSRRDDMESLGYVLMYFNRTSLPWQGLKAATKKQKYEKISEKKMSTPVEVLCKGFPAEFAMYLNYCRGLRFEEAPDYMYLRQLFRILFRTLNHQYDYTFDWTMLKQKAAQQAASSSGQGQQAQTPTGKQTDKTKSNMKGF

[4] = target: Cereblon/Casein kinase I alpha (Homo sapiens) (UniProt P48729+Q96SW2); assay: PROTAC activity at CRBN/Hibit-fused CK1 alpha in human MV4-11 cells assessed as degradation of CK1-alpha incubated for 6 hrs by Nano-Glo HiBiT assay relative to control; assay type: cell-based
Chain of Cereblon/Casein kinase I alpha (Homo sapiens) (P48729 2-337 limits assumed): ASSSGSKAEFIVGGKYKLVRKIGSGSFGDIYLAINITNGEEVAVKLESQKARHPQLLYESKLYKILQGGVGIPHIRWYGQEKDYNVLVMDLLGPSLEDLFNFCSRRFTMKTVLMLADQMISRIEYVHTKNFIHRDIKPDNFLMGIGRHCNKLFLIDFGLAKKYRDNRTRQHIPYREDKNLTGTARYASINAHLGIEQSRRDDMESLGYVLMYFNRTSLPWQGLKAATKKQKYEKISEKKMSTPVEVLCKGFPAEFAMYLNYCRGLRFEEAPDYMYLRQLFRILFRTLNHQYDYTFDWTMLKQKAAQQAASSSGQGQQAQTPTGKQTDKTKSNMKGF
Chain of Cereblon/Casein kinase I alpha (Homo sapiens) (Q96SW2 whole entry partner, the tested form may be a part, canonical isoform): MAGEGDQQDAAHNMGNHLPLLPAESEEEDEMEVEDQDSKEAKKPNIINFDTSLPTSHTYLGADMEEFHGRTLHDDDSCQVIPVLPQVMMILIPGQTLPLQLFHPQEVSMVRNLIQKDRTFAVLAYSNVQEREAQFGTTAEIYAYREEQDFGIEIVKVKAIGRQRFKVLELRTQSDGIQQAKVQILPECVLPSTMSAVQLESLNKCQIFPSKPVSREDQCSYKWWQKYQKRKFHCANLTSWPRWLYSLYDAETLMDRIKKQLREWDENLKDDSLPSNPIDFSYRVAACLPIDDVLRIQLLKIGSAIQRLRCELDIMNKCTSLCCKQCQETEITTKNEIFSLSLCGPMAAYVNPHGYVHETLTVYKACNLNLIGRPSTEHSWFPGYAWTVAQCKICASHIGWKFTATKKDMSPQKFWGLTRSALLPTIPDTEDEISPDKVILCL

[5] = target: T3, Protein cereblon/Casein kinase I isoform delta (Homo sapiens, UniProt P48730+Q96SW2); assay: PROTAC activity at CRBN/Hibit-fused CK1 delta in human MV4-11 cells assessed as degradation of CK1-delta incubated for 6 hrs by Nano-Glo HiBiT assay relative to control; assay type: cell-based
Target sequence in this assay (P48730 whole entry, looked up, the tested form may be a part, canonical isoform): as the sequence (P48730 whole entry, looked up, the tested form may be a part, canonical isoform) above
Target sequence in this assay (Q96SW2 whole entry, looked up, the tested form may be a part, canonical isoform): as the sequence (Q96SW2 whole entry partner, the tested form may be a part, canonical isoform) above

[6] = target: T3, Protein cereblon/Casein kinase I isoform delta; assay: PROTAC activity at CRBN/full length N-terminal Nano-luc fused CK1 delta (unknown origin) transfected in HEK293T cells incubated for 2 hrs followed by substrate addition by NanoBRET target engagement assay; assay type: cell-based
Target sequence in this assay (P48730 whole entry, the tested form may be a part, canonical isoform): as the sequence (P48730 whole entry, looked up, the tested form may be a part, canonical isoform) above
Target sequence in this assay (Q96SW2 whole entry, the tested form may be a part, canonical isoform): as the sequence (Q96SW2 whole entry partner, the tested form may be a part, canonical isoform) above

[7] = target: T3, Protein cereblon/Casein kinase I isoform delta; assay: PROTAC activity at CRBN/Hibit-fused CK1 delta in human MV4-11 cells assessed as degradation of CK1-delta at 10 nM incubated for 6 hrs by Nano-Glo HiBiT assay; assay type: cell-based
Target sequence in this assay (P48730 whole entry, looked up, the tested form may be a part, canonical isoform): as the sequence (P48730 whole entry, looked up, the tested form may be a part, canonical isoform) above
Target sequence in this assay (Q96SW2 whole entry, looked up, the tested form may be a part, canonical isoform): as the sequence (Q96SW2 whole entry partner, the tested form may be a part, canonical isoform) above

[8] = target: Casein kinase I isoform delta (Homo sapiens) (UniProt P48730); assay: Inhibition of CK1 delta in HEK293 cells at 5 to 10 uM measured after 6 hrs by Western blot analysis; assay type: cell-based; settings: dose 5-10 µM
[9] = target: T4, Casein kinase I isoform epsilon (Homo sapiens, UniProt P49674); assay: Inhibition of CK1 epsilon in HEK293 cells at 5 to 10 uM measured after 6 hrs by Western blot analysis; assay type: cell-based; settings: dose 5-10 µM
[10] = target: T2, von Hippel-Lindau disease tumor suppressor/Casein kinase I isoform alpha (Homo sapiens); assay: PROTAC activity at VHL/CK1 alpha in HEK293 cells assessed as induction of degradation of CK1 alpha by measuring maximum efficacy at 5 to 10 uM measured after 6 hrs by Western blot analysis relative to control; assay type: cell-based; settings: dose 5-10 µM
[11] = target: T1, von Hippel-Lindau disease tumor suppressor/Casein kinase I isoform delta; assay: PROTAC activity at VHL/CK1 delta in HEK293 cells assessed as induction of degradation of CK1 delta by measuring maximum efficacy at 5 to 10 uM measured after 6 hrs by Western blot analysis relative to control; assay type: cell-based; settings: dose 5-10 µM
Target sequence in this assay (P40337 whole entry, looked up, the tested form may be a part, canonical isoform): as the sequence (P40337 whole entry, looked up, the tested form may be a part, canonical isoform) above
Target sequence in this assay (P48730 whole entry, looked up, the tested form may be a part, canonical isoform): as the sequence (P48730 whole entry, looked up, the tested form may be a part, canonical isoform) above

[12] = target: T1, von Hippel-Lindau disease tumor suppressor/Casein kinase I isoform delta; assay: PROTAC activity at VHL/Hibit-fused CK1 delta in human MV4-11 cells assessed as degradation of CK1-delta incubated for 6 hrs by Nano-Glo HiBiT assay; assay type: cell-based
[13] = target: T5, von Hippel-Lindau disease tumor suppressor/Casein kinase I isoform epsilon (Homo sapiens) (UniProt P49674+P40337); assay: PROTAC activity at VHL/CK1 epsilon in HEK293 cells assessed as induction of degradation of CK1 epsilon by measuring maximum efficacy at 5 to 10 uM measured after 6 hrs by Western blot analysis relative to control; assay type: cell-based; settings: dose 5-10 µM
T5 sequence (P40337 whole entry, looked up, canonical isoform): as the sequence (P40337 whole entry, looked up, the tested form may be a part, canonical isoform) above
T5 sequence (P49674 whole entry, looked up, canonical isoform): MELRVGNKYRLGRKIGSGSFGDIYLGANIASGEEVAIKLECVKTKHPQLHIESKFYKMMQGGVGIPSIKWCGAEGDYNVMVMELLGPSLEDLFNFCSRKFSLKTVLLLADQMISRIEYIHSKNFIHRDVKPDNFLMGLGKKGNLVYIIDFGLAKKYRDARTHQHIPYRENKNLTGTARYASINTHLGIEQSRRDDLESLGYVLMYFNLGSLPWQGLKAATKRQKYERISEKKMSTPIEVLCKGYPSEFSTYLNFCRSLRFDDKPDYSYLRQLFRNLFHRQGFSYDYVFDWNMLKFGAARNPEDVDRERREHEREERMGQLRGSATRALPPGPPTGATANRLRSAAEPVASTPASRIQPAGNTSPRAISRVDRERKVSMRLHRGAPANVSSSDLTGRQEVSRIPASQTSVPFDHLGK

[14] = target: T5, von Hippel-Lindau disease tumor suppressor/Casein kinase I isoform epsilon (Homo sapiens); assay: PROTAC activity at VHL/CK1 epsilon in HEK293 cells assessed as induction of degradation of CK1 epsilon at 0.01 to 30 uM by Western blot analysis; assay type: cell-based; settings: dose 0.01-30 µM
[15] = target: T1, von Hippel-Lindau disease tumor suppressor/Casein kinase I isoform delta; assay: PROTAC activity at VHL/CK1 delta in HEK293 cells assessed as induction of degradation of CK1 delta by Western blot analysis; assay type: cell-based
[16] = target: T1, von Hippel-Lindau disease tumor suppressor/Casein kinase I isoform delta; assay: PROTAC activity at VHL/CK1 delta in HEK293 cells assessed as induction of degradation of CK1 delta at upto 20 uM pretreated with LGK974 followed by compound addition and measured after 6 hrs by Western blot analysis; assay type: cell-based
Target sequence in this assay (P40337 whole entry, looked up, the tested form may be a part, canonical isoform): as the sequence (P40337 whole entry, looked up, the tested form may be a part, canonical isoform) above
Target sequence in this assay (P48730 whole entry, looked up, the tested form may be a part, canonical isoform): as the sequence (P48730 whole entry, looked up, the tested form may be a part, canonical isoform) above

MV4-11 [17] = assay: Cytotoxicity in human MV4-11 cells at 10 uM measured after 72 hrs by alamar blue assay; assay type: functional, cell-based
[18] = target: T1, von Hippel-Lindau disease tumor suppressor/Casein kinase I isoform delta; assay: PROTAC activity at VHL/CK1 delta in HEK293 cells assessed as dephosphorylation of DVL3 at high concentration pretreated with LGK974 followed by compound addition and measured after 6 hrs by Western blot analysis; assay type: cell-based
Target sequence in this assay (P40337 whole entry, looked up, the tested form may be a part, canonical isoform): as the sequence (P40337 whole entry, looked up, the tested form may be a part, canonical isoform) above
Target sequence in this assay (P48730 whole entry, looked up, the tested form may be a part, canonical isoform): as the sequence (P48730 whole entry, looked up, the tested form may be a part, canonical isoform) above

[19] = target: T5, von Hippel-Lindau disease tumor suppressor/Casein kinase I isoform epsilon (Homo sapiens); assay: PROTAC activity at VHL/CK1 epsilon in HEK293 cells assessed as induction of degradation of CK1 epsilon at upto 20 uM pretreated with LGK974 followed by compound addition and measured after 6 hrs by Western blot analysis; assay type: cell-based
[20] = target: T5, von Hippel-Lindau disease tumor suppressor/Casein kinase I isoform epsilon (Homo sapiens); assay: PROTAC activity at VHL/CK1 epsilon in HEK293 cells assessed as dephosphorylation of DVL3 at high concentration pretreated with LGK974 followed by compound addition and measured after 6 hrs by Western blot analysis; assay type: cell-based
[21] = target: T2, von Hippel-Lindau disease tumor suppressor/Casein kinase I isoform alpha (Homo sapiens); assay: PROTAC activity at VHL/CK1 alpha in HEK293 cells assessed as induction of degradation of CK1 alpha at >10 uM by Western blot analysis; assay type: cell-based
MV4-11 [22] = assay: Cytotoxicity in human MV4-11 cells at <5 uM measured after 60 hrs by alamar blue assay; assay type: functional, cell-based
[23] = Bioavailability in mouse; assay type: ADME, organism-based; settings: in vivo
[24] = target: T4, Casein kinase I isoform epsilon; assay: Inhibition of CK1 epsilon (unknown origin)

Row | Structure (SMILES) | Emax [1] | Emax [2] | Emax [3] | Emax [4] | Emax [5] | EC50 [6] | other results
1 | Cc1ncsc1-c1ccc(CNC(=O)[C@@H]2C[C@@H](O)CN2C(=O)[C@@H](NC(=O)CCOCCOCCOCCOCCN2CCC(F)(Cn3cnc(-c4ccc(F)cn4)c3-c3ccnc4[nH]ccc34)CC2)C(C)(C)C)cc1 | 2.8% | < 10% | < 10% |  |  |  | 
2 | O=C(COc1cccc2c1C(=O)N(C1CCC(=O)NC1=O)C2=O)NCCOCCOCCOCCC(=O)N1CCC(F)(Cn2cnc(-c3ccc(F)cn3)c2-c2ccnc3[nH]ccc23)CC1 (stereo unspecified) |  |  |  | 12.6% | < 10% | 16 nM | 
3 | Cc1ncsc1-c1ccc(CNC(=O)[C@@H]2C[C@@H](O)CN2C(=O)[C@@H](NC(=O)CC2CCN(C(=O)CCOCCOCCOCCN3CCC(F)(Cn4cnc(-c5ccc(F)cn5)c4-c4ccnc5[nH]ccc45)CC3)CC2)C(C)(C)C)cc1 | 3.2% | < 10% | < 10% |  |  |  | 
4 | O=C(COc1cccc2c1C(=O)N(C1CCC(=O)NC1=O)C2=O)NCCCCCC(=O)N1CCC(F)(Cn2cnc(-c3ccc(F)cn3)c2-c2ccnc3[nH]ccc23)CC1 (stereo unspecified) |  |  |  | < 10% | 18.2% | 9.3 nM | 
5 | O=C1CCC(N2C(=O)c3cccc(NCCCCCC(=O)N4CCC(F)(Cn5cnc(-c6ccc(F)cn6)c5-c5ccnc6[nH]ccc56)CC4)c3C2=O)C(=O)N1 (stereo unspecified) |  |  |  | < 10% | 35% | 4.3 nM | Activity [7]: Active
6 | O=C(CCOCCOCCOCCN1CCC(F)(Cn2cnc(-c3ccc(F)cn3)c2-c2ccnc3[nH]ccc23)CC1)NCCNc1cccc2c1C(=O)N(C1CCC(=O)NC1=O)C2=O (stereo unspecified) |  |  |  | 20.2% | 36% | 7.7 nM | Activity [7]: Active
7 | Cc1ncsc1-c1ccc(CNC(=O)[C@@H]2C[C@@H](O)CN2C(=O)[C@@H](NC(=O)Cc2ccc(CNC(=O)CN3CCC(F)(Cn4cnc(-c5ccc(F)cn5)c4-c4ccnc5[nH]ccc45)CC3)cc2)C(C)(C)C)cc1 | 0.5% | 19.1% | < 10% |  |  |  | 
8 | O=C1CCC(N2C(=O)c3cccc(OCCCCCCN4CCC(F)(Cn5cnc(-c6ccc(F)cn6)c5-c5ccnc6[nH]ccc56)CC4)c3C2=O)C(=O)N1 (stereo unspecified) |  |  |  |  | 15% | 1.5 nM | inhibition [8]: Active; inhibition [9]: Active
9 | Cc1ncsc1-c1ccc(CNC(=O)[C@@H]2C[C@@H](O)CN2C(=O)[C@@H](NC(=O)CC2CCN(C(=O)CN3CCC(F)(Cn4cnc(-c5ccc(F)cn5)c4-c4ccnc5[nH]ccc45)CC3)CC2)C(C)(C)C)cc1 | 2% | 29.1% | < 10% |  |  |  | 
10 | O=C(COc1cccc2c1C(=O)N(C1CCC(=O)NC1=O)C2=O)NCc1ccc(CC(=O)N2CCC(F)(Cn3cnc(-c4ccc(F)cn4)c3-c3ccnc4[nH]ccc34)CC2)cc1 (stereo unspecified) |  |  |  | 19.7% | 14.8% | 4.6 nM | 
11 | Cc1ncsc1-c1ccc(CNC(=O)[C@@H]2C[C@@H](O)CN2C(=O)[C@@H](NC(=O)CCOCCOCCN2CCC(F)(Cn3cnc(-c4ccc(F)cn4)c3-c3ccnc4[nH]ccc34)CC2)C(C)(C)C)cc1 | 1.8% | 50.8% | 17.3% |  |  |  | Emax [10]: > 50%; Emax [11]: > 50%; DC50 [12]: 9270 nM; Emax [13]: > 50%
12 | O=C(CCOCCOCCOCCOCCN1CCC(F)(Cn2cnc(-c3ccc(F)cn3)c2-c2ccnc3[nH]ccc23)CC1)NCCNc1cccc2c1C(=O)N(C1CCC(=O)NC1=O)C2=O (stereo unspecified) |  |  |  | 11.3% | 40.2% | 11.2 nM | Activity [7]: Active
13 | Cc1ncsc1-c1ccc(CNC(=O)[C@@H]2C[C@@H](O)CN2C(=O)[C@@H](NC(=O)CC2CN(C(=O)CCOCCOCCN3CCC(F)(Cn4cnc(-c5ccc(F)cn5)c4-c4ccnc5[nH]ccc45)CC3)C2)C(C)(C)C)cc1 | 6.3% | < 10% | < 10% |  |  |  | 
14 | O=C1CCC(N2C(=O)c3cccc(NCCOCCOCCOCCC(=O)N4CCC(F)(Cn5cnc(-c6ccc(F)cn6)c5-c5ccnc6[nH]ccc56)CC4)c3C2=O)C(=O)N1 (stereo unspecified) |  |  |  | 16.1% | 34.4% | 467 nM | 
15 | Cc1ncsc1-c1ccc(CNC(=O)[C@@H]2C[C@H](O)CN2C(=O)[C@@H](NC(=O)CCCCCCC(=O)N2CCC(F)(Cn3cnc(-c4ccc(F)cn4)c3-c3ccnc4[nH]ccc34)CC2)C(C)(C)C)cc1 | 2.4% | < 10% | < 10% |  |  |  | Activity [14]: Weak_effect; DC50 [15]: 200 nM; Activity [16]: inactive; Activity (MV4-11 [17]): Active; Compound Showed Milder Cytotoxic Effect; Activity [18]: Active; Activity [19]: inactive; Activity [20]: Active; Activity [21]: Weak_effect
16 | O=C1CCC(N2C(=O)c3cccc(NCc4ccc(CC(=O)N5CCC(F)(Cn6cnc(-c7ccc(F)cn7)c6-c6ccnc7[nH]ccc67)CC5)cc4)c3C2=O)C(=O)N1 (stereo unspecified) |  |  |  | < 10% | 14.4% | 9.2 nM | 
17 | Cc1ncsc1-c1ccc(CNC(=O)[C@@H]2C[C@@H](O)CN2C(=O)[C@@H](NC(=O)CCOCCOCCOCCN2CCC(F)(Cn3cnc(-c4ccc(F)cn4)c3-c3ccnc4[nH]ccc34)CC2)C(C)(C)C)cc1 | 4.3% | 35% | 35.9% |  |  |  | Activity (MV4-11 [22]): Active
18 | Cc1ncsc1-c1ccc(CNC(=O)[C@@H]2C[C@@H](O)CN2C(=O)[C@@H](NC(=O)CC2CN(C(=O)CCOCCOCCOCCN3CCC(F)(Cn4cnc(-c5ccc(F)cn5)c4-c4ccnc5[nH]ccc45)CC3)C2)C(C)(C)C)cc1 | 6.4% | < 10% | < 10% |  |  |  | 
19 | Cc1ncsc1-c1ccc(CNC(=O)[C@@H]2C[C@@H](O)CN2C(=O)[C@@H](NC(=O)CC2CN(C(=O)CN3CCC(F)(Cn4cnc(-c5ccc(F)cn5)c4-c4ccnc5[nH]ccc45)CC3)C2)C(C)(C)C)cc1 | 2.4% | 21.7% | < 10% |  |  |  | 
20 | CN1CCC(F)(Cn2cnc(-c3ccc(F)cn3)c2-c2ccnc3[nH]ccc23)CC1 |  |  |  |  |  |  | bioavailability [23]: 0.57%; IC50 [24]: 27.7 nM; Activity (MV4-11 [22]): Active
21 | O=C(CCOCCOCCN1CCC(F)(Cn2cnc(-c3ccc(F)cn3)c2-c2ccnc3[nH]ccc23)CC1)NCCNc1cccc2c1C(=O)N(C1CCC(=O)NC1=O)C2=O (stereo unspecified) |  |  |  | 25% | 36.4% | 9.3 nM | Activity [7]: Active
